In ChEMBL document CHEMBL3244168, “Synthesis and antitumor activity of preactivated isophosphamide analogues bearing modified alkylating functionalities” (J Med Chem, 1978):
Converted amounts (≈) assume the structure as drawn. The source made the active and inactive calls. The rule behind the calls is not given here.

Columns and labels:
[1] = tested on: Mus musculus; experiment: Toxicity in BDF1 mouse allografted with mouse L1210 cells assessed as mortality at 80 mg/kg, ip administered 24 hrs measured within 30 days; format: organism-based; set-up: dose 80 mg/kg, route intraperitoneal; conditions: in vivo
[2] = tested on: L1210; experiment: Cytotoxicity against mouse L1210 cells assessed as growth inhibition after 72 hrs; format: functional; conditions: L1210, 72 h, read-out: ED50 (the source's name)
[3] = tested on: L1210; experiment: Antileukemic activity against mouse L1210 cells allografted in ip dosed BDF1 mouse assessed as maximum tolerated dose for survival over 30 days administered 24 hrs; format: functional
[4] = tested on: L1210; experiment: Ratio of ILSmax to ILS30 for antileukemic activity against mouse L1210 cells allografted in ip dosed BDF1 mouse; format: functional
[5] = tested on: L1210; experiment: Antileukemic activity against mouse L1210 cells allografted in ip dosed BDF1 mouse administered 24 hrs; format: functional
[6] = tested on: L1210; experiment: Ratio of Cmax to Cmin for antileukemic activity against mouse L1210 cells allografted in iv dosed BDF1 mouse assessed as survival over 60 days; format: functional
[7] = tested on: L1210; experiment: Antileukemic activity against mouse L1210 cells allografted in BDF1 mouse assessed as mean survival time at 330 mg/kg, ip administered 24 hrs (Rvb 4.6 +/- 0.16 days); format: functional; conditions: route intraperitoneal
[8] = tested on: L1210; experiment: Ratio of Cmax to Cmin for antileukemic activity against mouse L1210 cells allografted in po dosed BDF1 mouse assessed as survival over 60 days; format: functional
[9] = tested on: L1210; experiment: Antileukemic activity against mouse L1210 cells allografted in iv dosed BDF1 mouse assessed as maximum tolerated dose for survival over 60 days administered 24 hrs; format: functional
[10] = tested on: L1210; experiment: Antileukemic activity against mouse L1210 cells allografted in BDF1 mouse assessed as mean survival time at 530 mg/kg, ip administered 24 hrs (Rvb 4.6 +/- 0.16 days); format: functional; conditions: route intraperitoneal
[11] = tested on: L1210; experiment: Antileukemic activity against mouse L1210 cells allografted in iv dosed BDF1 mouse assessed as survival over 60 days administered 24 hrs; format: functional; conditions: read-out: MED
[12] = tested on: L1210; experiment: Antileukemic activity against mouse L1210 cells allografted in po dosed BDF1 mouse assessed as maximum tolerated dose for survival over 60 days administered 24 hrs; format: functional
[13] = tested on: L1210; experiment: Antileukemic activity against mouse L1210 cells allografted in BDF1 mouse assessed as mean survival time at 130 mg/kg, ip administered 24 hrs (Rvb 4.6 +/- 0.16 days); format: functional; conditions: route intraperitoneal
[14] = tested on: L1210; experiment: Antileukemic activity against mouse L1210 cells allografted in BDF1 mouse assessed as mean survival time at 70 mg/kg, ip administered 24 hrs (Rvb 4.6 +/- 0.16 days); format: functional; conditions: route intraperitoneal
[15] = tested on: L1210; experiment: Antileukemic activity against mouse L1210 cells allografted in BDF1 mouse assessed as increase in life span at 330 mg/kg, ip administered 24 hrs relative to control; format: functional; conditions: route intraperitoneal
[16] = tested on: L1210; experiment: Antileukemic activity against mouse L1210 cells allografted in po dosed BDF1 mouse assessed as survival over 60 days administered 24 hrs; format: functional; conditions: read-out: MED
[17] = tested on: L1210; experiment: Antileukemic activity against mouse L1210 cells allografted in BDF1 mouse assessed as increase in life span at 70 mg/kg, ip administered 24 hrs relative to control; format: functional; conditions: route intraperitoneal
[18] = tested on: L1210; experiment: Antileukemic activity against mouse L1210 cells allografted in BDF1 mouse assessed as increase in life span at 530 mg/kg, ip administered 24 hrs relative to control; format: functional; conditions: route intraperitoneal
[19] = tested on: L1210; experiment: Antileukemic activity against mouse L1210 cells allografted in BDF1 mouse assessed as increase in life span at 130 mg/kg, ip administered 24 hrs relative to control; format: functional; conditions: route intraperitoneal
[20] = tested on: L1210; experiment: Antileukemic activity against mouse L1210 cells allografted in BDF1 mouse assessed as mean survival time at 50 mg/kg, ip administered 24 hrs (Rvb 4.6 +/- 0.16 days); format: functional; conditions: route intraperitoneal
[21] = tested on: L1210; experiment: Antileukemic activity against mouse L1210 cells allografted in ip dosed BDF1 mouse assessed as maximum tolerated dose for survival over 60 days administered 24 hrs; format: functional
[22] = tested on: L1210; experiment: Antileukemic activity against mouse L1210 cells allografted in BDF1 mouse assessed as increase in life span at 200 mg/kg, ip administered 24 hrs relative to control; format: functional; conditions: route intraperitoneal
[23] = tested on: L1210; experiment: Antileukemic activity against mouse L1210 cells allografted in BDF1 mouse assessed as increase in life span at 400 mg/kg, ip administered 24 hrs relative to control
[24] = tested on: L1210; experiment: Antileukemic activity against mouse L1210 cells allografted in BDF1 mouse assessed as increase in life span at 100 mg/kg, ip administered 24 hrs relative to control; format: functional; conditions: route intraperitoneal
[25] = tested on: L1210; experiment: Antileukemic activity against mouse L1210 cells allografted in BDF1 mouse assessed as mean survival time at 100 mg/kg, ip administered 24 hrs (Rvb 4.6 +/- 0.16 days); format: functional; conditions: route intraperitoneal
[26] = tested on: L1210; experiment: Antileukemic activity against mouse L1210 cells allografted in BDF1 mouse assessed as mean survival time at 200 mg/kg, ip administered 24 hrs (Rvb 4.6 +/- 0.16 days); format: functional; conditions: route intraperitoneal
[27] = tested on: L1210; experiment: Ratio of Cmax to Cmin for antileukemic activity against mouse L1210 cells allografted in ip dosed BDF1 mouse assessed as survival over 60 days; format: functional
[28] = tested on: L1210; experiment: Antileukemic activity against mouse L1210 cells allografted in BDF1 mouse assessed as increase in life span at 50 mg/kg, ip administered 24 hrs relative to control; format: functional; conditions: route intraperitoneal
[29] = tested on: L1210; experiment: Antileukemic activity against mouse L1210 cells allografted in ip dosed BDF1 mouse assessed as survival over 60 days administered 24 hrs; format: functional; conditions: read-out: MED
[30] = tested on: Mus musculus; experiment: Acute toxicity in iv dosed BDF1 mouse; format: organism-based; conditions: in vivo
[31] = tested on: L1210; experiment: Antileukemic activity against mouse L1210 cells allografted in BDF1 mouse assessed as increase in life span at 10 mg/kg, ip administered 24 hrs relative to control; format: functional; conditions: route intraperitoneal
[32] = tested on: Mus musculus; experiment: Acute toxicity in ip dosed BDF1 mouse; format: organism-based; conditions: in vivo
[33] = tested on: L1210; experiment: Antileukemic activity against mouse L1210 cells allografted in BDF1 mouse assessed as increase in survivor over 30 days at 100 mg/kg, ip administered 24 hrs; format: functional, organism-based; set-up: dose 100 mg/kg
[34] = tested on: Rattus norvegicus; experiment: Acute toxicity in iv dosed Wistar rat; format: organism-based; conditions: in vivo
[35] = tested on: Mus musculus; experiment: Acute toxicity in po dosed BDF1 mouse; format: organism-based; conditions: in vivo
[36] = tested on: Rattus norvegicus; experiment: Acute toxicity in ip dosed Wistar rat; format: organism-based; conditions: in vivo
[37] = tested on: L1210; experiment: Antileukemic activity against mouse L1210 cells allografted in BDF1 mouse assessed as increase in life span at 2 mg/kg, ip administered 24 hrs relative to control; format: functional; conditions: route intraperitoneal
[38] = tested on: L1210; experiment: Antileukemic activity against mouse L1210 cells allografted in BDF1 mouse assessed as mean survival time at 2 mg/kg, ip administered 24 hrs (Rvb 4.6 +/- 0.16 days); format: functional; conditions: route intraperitoneal
[39] = tested on: L1210; experiment: Antileukemic activity against mouse L1210 cells allografted in BDF1 mouse assessed as mean survival time at 10 mg/kg, ip administered 24 hrs (Rvb 4.6 +/- 0.16 days); format: functional; conditions: route intraperitoneal
[40] = tested on: Rattus norvegicus; experiment: Acute toxicity in po dosed Wistar rat; format: organism-based; conditions: in vivo

Structure (SMILES): CS(=O)(=O)OCCN1C(OO)CCOP1(=O)N(CCCl)CCCl (centres undefined)
- Activity [1]: Toxic
- EC50 [2]: 0.06 µg/mL (≈ 0.144 µM)
- ILSmax [3]: 80 mg/kg
- Ratio [4]: 8
- ILS30 [5]: 10 mg/kg

Structure (SMILES): CS(=O)(=O)OCCNP1(=O)OCCC(OO)N1CCOS(C)(=O)=O (centres undefined)
- EC50 [2]: 3.9 µg/mL (≈ 9.46 µM)
- ILSmax [3]: 50 mg/kg
- Ratio [4]: 2
- ILS30 [5]: 25 mg/kg

Structure (SMILES): O=P1(NCCCl)OCCCN1CCCl (centres undefined) [IFOSFAMIDE]
- Ratio [6]: 1.1
- MST [7]: >24.3 days
- Ratio [8]: 1
- MTD [9]: 320 mg/kg
- MST [10]: >16.5 days
- minimal effective dose [11]: 280 mg/kg
- MTD [12]: 250 mg/kg
- MST [13]: 11.9 days
- MST [14]: 8.8 days
- ILS at 330 mg/kg [15]: > 427%
- minimal effective dose [16]: 250 mg/kg
- ILS at 70 mg/kg [17]: 90%
- ILS at 530 mg/kg [18]: > 251%
- ILS at 130 mg/kg [19]: 158%

Structure (SMILES): CCN(CCCl)P1(=O)OCCC(OO)N1CCOS(C)(=O)=O (centres undefined)
- EC50 [2]: 0.5 µg/mL (≈ 1.31 µM)
- ILSmax [3]: 70 mg/kg
- Ratio [4]: 12
- ILS30 [5]: 6 mg/kg

Structure (SMILES): O=P1(NCCBr)OCCC(OO)N1CCBr (centres undefined)
- EC50 [2]: 2 µg/mL (≈ 5.24 µM)
- ILSmax [3]: 70 mg/kg
- Ratio [4]: 12
- ILS30 [5]: 6 mg/kg

Structure (SMILES): CN(CCBr)P1(=O)OCCC(OO)N1CCOS(C)(=O)=O (centres undefined)
- EC50 [2]: 1 µg/mL (≈ 2.43 µM)
- ILSmax [3]: 60 mg/kg
- Ratio [4]: 20
- ILS30 [5]: 3 mg/kg

Structure (SMILES): O=P1(N(CCCl)CCCl)NCCCO1 (centres undefined) [CYCLOPHOSPHAMIDE ANHYDROUS]
- Ratio [6]: 1
- MST [20]: 7.8 days
- Ratio [8]: 1
- MTD [21]: 200 mg/kg
- MTD [9]: 200 mg/kg
- ILS at 200 mg/kg [22]: > 310%
- ILS at 400 mg/kg [23]: > 283%
- ILS at 100 mg/kg [24]: 169%
- minimal effective dose [11]: 200 mg/kg
- MTD [12]: 200 mg/kg
- MST [25]: 12.4 days
- MST [26]: >18.9 days
- Ratio [27]: 2
- ILS at 50 mg/kg [28]: 68%
- minimal effective dose [16]: 200 mg/kg
- minimal effective dose [29]: 100 mg/kg

Structure (SMILES): CN(CCCl)P1(=O)OCCC(OO)N1CCOS(C)(=O)=O (centres undefined)
- LD10 [30]: 120 mg/kg
- ILS at 10 mg/kg [31]: 147%
- Ratio [6]: 6.6
- LD10 [32]: 134 mg/kg
- Activity [33]: Active
- MST [20]: >26.1 days
- Ratio [8]: 4
- MTD [21]: 100 mg/kg
- MTD [9]: 100 mg/kg
- LD10 [34]: 66 mg/kg
- LD10 [35]: 284 mg/kg
- LD10 [36]: 41 mg/kg
- ILS at 2 mg/kg [37]: 44%
- ILS at 100 mg/kg [24]: > 242%
- EC50 [2]: 0.8 µg/mL (≈ 2.18 µM)
- minimal effective dose [11]: 15 mg/kg
- MTD [12]: 200 mg/kg
- MST [38]: 6.6 days
- ILSmax [3]: 80 mg/kg
- Ratio [4]: 40
- ILS30 [5]: 2 mg/kg
- MST [25]: >15.8 days
- Ratio [27]: 10
- ILS at 50 mg/kg [28]: > 468%
- minimal effective dose [16]: 50 mg/kg
- minimal effective dose [29]: 10 mg/kg
- MST [39]: 11.4 days
- LD10 [40]: 238 mg/kg
